Measured values taken from PubChem BioAssay (NCI).
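Results reflect a 48-hour exposure of cells in 96-well plates to compound at five concentrations. The concentration for 50% growth inhibition is given as GI50. TGI is the concentration that stops growth completely.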

Tests used:
Assay in all cases: NCI anticancer screen, dose series, 48 h
[1] = system: MDA-MB-468 breast
[2] = system: SK-OV-3 ovarian
[3] = system: HOP-92 NSCLC
[4] = system: LOX IMVI melanoma
[5] = system: K-562 leukemia
[6] = system: ACHN renal
[7] = system: 786-0 renal
[8] = system: KM12 colon
[9] = system: U251 CNS
[10] = system: SK-MEL-28 melanoma
[11] = system: SK-MEL-2 melanoma
[12] = system: HCT-116 colon
[13] = system: SF-539 CNS
[14] = system: A549 NSCLC
[15] = system: SF-268 CNS
[16] = system: UACC-257 melanoma
[17] = system: SF-295 CNS
[18] = system: A498 renal
[19] = system: TK-10 renal
[20] = system: OVCAR-3 ovarian
[21] = system: NCI-H522 lung
[22] = system: OVCAR-8 ovarian
[23] = system: HS 578T breast
[24] = system: EKVX NSCLC
[25] = system: OVCAR-4 ovarian
[26] = system: SW-620 colon
[27] = system: HCC-2998 colon
[28] = system: HCT-15 colon
[29] = system: HL-60(TB) leukemia
[30] = system: NCI-H23 lung
[31] = system: UACC-62 melanoma
[32] = system: NCI-H226 lung
[33] = system: IGROV1 ovarian
[34] = system: MOLT-4 leukemia
[35] = system: BT-549 breast
[36] = system: RXF 393 renal
[37] = system: DU-145 prostate
[38] = system: NCI/ADR-RES ovarian
[39] = system: SK-MEL-5 melanoma
[40] = system: SNB-75 CNS
[41] = system: M14 melanoma
[42] = system: RPMI-8226 leukemia
[43] = system: CAKI-1 renal
[44] = system: MDA-MB-435
[45] = system: COLO 205 colon
[46] = system: CCRF-CEM leukemia
[47] = system: SN12C renal
[48] = system: MALME-3M melanoma
[49] = system: HOP-62 NSCLC
[50] = system: HT29 colon
[51] = system: PC-3 prostate
[52] = system: NCI-H460 lung
[53] = system: OVCAR-5 ovarian
[54] = system: MCF7 breast

CC(C)(C)NC/C(=C\c1ccccc1)C(=O)c1ccccc1
GI50 [1]: 0.713 µM | TGI [1]: 2.18 µM

O=C(Cn1c(C(=O)c2ccccc2)nc2ccccc21)c1ccc(F)cc1
GI50 [1]: 2.02 µM | TGI [1]: 16.6 µM

Cc1nnc(-c2ccc(C)c(-c3ccc(C(=O)NCc4ccc(Cl)cc4)cc3)c2)o1
GI50 [1]: 2.91 µM | TGI [1]: 15.1 µM

CC(C)CCC(=O)[C@@H](C)[C@H]1[C@@H](OC2OCC(O)C(O)C2NS(C)(=O)=O)C[C@H]2[C@@H]3CC=C4C[C@@H](O)CC[C@]4(C)[C@H]3CC[C@]12C (some centres undefined)
GI50 [1]: 3.38 µM | TGI [1]: 11.2 µM

CC(=O)C1CCC2C3CC=C4CC(SC(=N)N)CCC4(C)C3CCC12C (centres undefined)
GI50 [1]: 1.54 µM | TGI [1]: 2.9 µM

O=C(Nc1cccnc1)c1ccc2ccc3ccc(C(=O)Nc4cccnc4)nc3c2n1
GI50 [1]: 0.0697 µM | TGI [1]: 0.442 µM

CCOc1c(C#N)c2c(N)ncnc2n1C1OC(CO)C(O)C1O (centres undefined)
GI50 [1]: 1.75 µM | TGI [1]: 5.98 µM

COC(=O)c1ccc2c(c1)c1c(C)c3ccncc3c(C)c1n2C
GI50 [1]: 0.767 µM | TGI [1]: 15.2 µM

CC[C@]12C=CCN3CC[C@@]4(c5ccc(OC)cc5N(C)[C@H]4[C@@](O)(C(=O)OC)[C@@H]1OC(=O)CCC(=O)N[C@H](Cc1c[nH]c4ccccc14)C(=O)OC)[C@@H]32
GI50 [1]: 1.64 µM | TGI [1]: 3.14 µM

COc1ccc(/C=C\c2cc(OC)c(OC)c(OC)c2)c(O)c1O
GI50 [1]: 0.0741 µM | TGI [1]: 21.4 µM

Oc1ccc(CSc2nnc(-c3ccc(Cl)cc3)o2)c2cccnc12
GI50 [1]: 2.47 µM | TGI [1]: > 100 µM

CC[C@@H](C)Nc1cc(C(=O)NC2CC3CCC(C2)N3c2ccc(C(=O)C3CC3)cn2)c(C)cc1C(N)=O (some centres undefined)
GI50 [1]: 0.0189 µM | TGI [1]: 0.0838 µM

CCOC(=O)c1csc(NC(=O)COc2cccc(/C=C3\CSc4ccccc4C3=O)c2)n1
GI50 [1]: 0.0661 µM | TGI [1]: 0.185 µM

COc1cc(/C=C\c2cc(/C=C\c3ccc(O)c(OC)c3)n(C(=O)CNc3ccc(Cl)cc3)n2)ccc1O
GI50 [1]: 3.17 µM | TGI [1]: 9.69 µM

CC(C)(C)c1ccc(O)c(CN(Cc2cc(C(C)(C)C)ccc2O)C2CCCCC2)c1
GI50 [1]: 4.4 µM | TGI [1]: 19.2 µM

O=C(Nc1nc(-c2ccc(Cl)cc2)nc2c1sc(=S)n2-c1ccccc1)C(F)(F)F
GI50 [1]: 3.79 µM | TGI [1]: 20.5 µM

COc1cc2ncn(-c3cc(OCc4ccccc4C(F)(F)F)c(C(C)=O)s3)c2cc1OC
GI50 [1]: > 23.3 µM | TGI [1]: > 25 µM

C/C=C(/C)C(=O)OC1C=C(CO)C(=O)C(OC(=O)C(C)(O)C(C)Cl)C1C(C)C (centres undefined)
GI50 [1]: 1.05 µM | TGI [1]: 2.8 µM

O=C(Nc1cccc(Cl)c1)c1cc(N=Nc2ccc([N+](=O)[O-])cc2Cl)ccc1O
GI50 [1]: 2.91 µM | TGI [1]: > 100 µM

CN1CCN(Cc2ccc(NC(=O)c3cncc(C#Cc4cnn5ccccc45)c3)cc2C(F)(F)F)CC1
GI50 [1]: 0.965 µM | TGI [1]: 2.08 µM

C=C1CC[C@@H]2[C@]3(C)COC(c4cn[nH]c4-c4ccc(Br)cc4)O[C@@H]3CC[C@@]2(C)[C@@H]1C/C=C1/C(=O)OCC1O (some centres undefined)
GI50 [2]: 16.8 µM | TGI [2]: 32.2 µM | GI50 [3]: 5.08 µM | TGI [3]: 22.7 µM | GI50 [4]: 1.37 µM | TGI [4]: 2.72 µM | GI50 [5]: 2.24 µM | TGI [5]: 15.4 µM | GI50 [6]: 2.16 µM | TGI [6]: 6.16 µM | GI50 [7]: 5.75 µM | TGI [7]: 18.8 µM | GI50 [8]: 7.16 µM | TGI [8]: 29.2 µM | GI50 [9]: 6.83 µM | TGI [9]: 19.9 µM | GI50 [10]: 2.13 µM | TGI [10]: 4.95 µM | GI50 [11]: 5.85 µM | TGI [11]: 20.8 µM | GI50 [12]: 1.94 µM | TGI [12]: 5.19 µM | GI50 [13]: 2.2 µM | TGI [13]: 5.67 µM | GI50 [14]: 11.1 µM | TGI [14]: 26.4 µM | GI50 [15]: 16.5 µM | TGI [15]: 42.3 µM | GI50 [16]: 11.8 µM | TGI [16]: 27.5 µM | GI50 [17]: 12.1 µM | TGI [17]: 25.4 µM | GI50 [18]: 16.8 µM | TGI [18]: 30.6 µM | GI50 [19]: 18.4 µM | TGI [19]: 33.4 µM | GI50 [20]: 2.08 µM | TGI [20]: 4.49 µM | GI50 [21]: 2.08 µM | TGI [21]: 5.75 µM | GI50 [22]: 3.24 µM | TGI [22]: 61.9 µM | GI50 [23]: 17.7 µM | TGI [23]: > 100 µM | GI50 [24]: 4.68 µM | TGI [24]: 17.7 µM | GI50 [25]: 5.02 µM | TGI [25]: 32.8 µM | GI50 [26]: 2.33 µM | TGI [26]: 6.36 µM | GI50 [27]: 9.11 µM | TGI [27]: 21.4 µM | GI50 [28]: 1.97 µM | TGI [28]: 5.3 µM | GI50 [29]: 2.3 µM | TGI [29]: 17.6 µM | GI50 [30]: 10.5 µM | TGI [30]: 23.1 µM | GI50 [31]: 3.44 µM | TGI [31]: 15.8 µM | GI50 [32]: 1.93 µM | TGI [32]: 4.32 µM | GI50 [33]: 13.8 µM | TGI [33]: 30.9 µM | GI50 [34]: 2.86 µM | TGI [34]: 13.6 µM | GI50 [35]: 2.88 µM | TGI [35]: 12.3 µM | GI50 [36]: 1.9 µM | TGI [36]: 4.42 µM | GI50 [37]: 8.24 µM | TGI [37]: 23.6 µM | GI50 [38]: 2.2 µM | TGI [38]: 6.91 µM | GI50 [39]: 10.4 µM | TGI [39]: 23.4 µM | GI50 [40]: 7.04 µM | TGI [40]: 25.7 µM | GI50 [41]: 3.4 µM | TGI [41]: 16.7 µM | GI50 [42]: 2.56 µM | TGI [42]: > 100 µM | GI50 [43]: 8.18 µM | TGI [43]: 22 µM | GI50 [44]: 3.24 µM | TGI [44]: 15.3 µM | GI50 [45]: 4.45 µM | TGI [45]: 18.1 µM | GI50 [46]: 2.81 µM | TGI [46]: 44.2 µM | GI50 [47]: 7.51 µM | TGI [47]: 21.5 µM | GI50 [48]: 3.98 µM | TGI [48]: 17.7 µM | GI50 [49]: 18.9 µM | TGI [49]: 37.3 µM | GI50 [50]: 2.8 µM | TGI [50]: 10.5 µM | GI50 [51]: 4.08 µM | TGI [51]: 30.3 µM | GI50 [1]: 2.47 µM | TGI [1]: 9.41 µM | GI50 [52]: 12.6 µM | TGI [52]: 29.7 µM | GI50 [53]: 10 µM | TGI [53]: 23.1 µM | GI50 [54]: 2.13 µM | TGI [54]: 10.4 µM

O=S(=O)(Nc1ccc2ccccc2c1)c1ccc(-c2cnc(C3CC3)o2)cc1
GI50 [1]: 0.327 µM | TGI [1]: 12 µM

O=C(Nc1ccc2c(c1)OCO2)C(=O)c1c[nH]c2cc(F)ccc12
GI50 [1]: 5.7 µM | TGI [1]: 67.9 µM

O=C(NNC(=S)Nc1ccccc1)c1ccccn1
GI50 [1]: 2.84 µM | TGI [1]: 90.9 µM

CCCCCCN(C)Cc1ccc(OCCOc2ccc(CN(C)CCCCCC)cc2)cc1
GI50 [1]: 1.16 µM | TGI [1]: 2.48 µM

C=C1CCC2C3(C)COC(c4ccc(Cl)cc4)OC3CCC2(C)C1/C=C/C1=CCOC1=O (centres undefined)
GI50 [1]: 0.502 µM | TGI [1]: 6.25 µM

COc1cc(-c2ccc(NC(=O)NC3CC3)c(OC)c2)ccc1NC(=O)NC1CC1
GI50 [1]: > 100 µM | TGI [1]: > 100 µM

CC1(O)Cc2c(O)c3c(c(O)c2CC1O)C(=O)C=CC3=O (centres undefined)
GI50 [1]: 0.553 µM | TGI [1]: 1.93 µM

Nc1nc(N)c2c(n1)NC(c1ccc(Cl)cc1)CC(c1ccc(Nc3nc(NCCO)nc(Nc4ccc(Cl)cc4)n3)cc1)=N2 (centres undefined)
GI50 [1]: 1.39 µM | TGI [1]: 2.79 µM
